Measurements reported in patent publication US20050222146A1, “N-substituted-n-sulfonylaminocyclopropane compounds and pharmaceutical use thereof” (priority 2003, published 2005).
pIC50: −log10 of the molar value.

Columns and labels:
aggrecanase-1 = target: T1, aggrecanase-1 (Homo sapiens, UniProt O75173); assay: Aggrecanase-1 inhibitory action, Particle Assay (GAG release from aggrecan-containing polyacrylamide particles); format: biochemical; details: 37° C. for 15 hr, read-out: Experimental Example 1 IC50 AG1
T1 sequence (O75173 213-837): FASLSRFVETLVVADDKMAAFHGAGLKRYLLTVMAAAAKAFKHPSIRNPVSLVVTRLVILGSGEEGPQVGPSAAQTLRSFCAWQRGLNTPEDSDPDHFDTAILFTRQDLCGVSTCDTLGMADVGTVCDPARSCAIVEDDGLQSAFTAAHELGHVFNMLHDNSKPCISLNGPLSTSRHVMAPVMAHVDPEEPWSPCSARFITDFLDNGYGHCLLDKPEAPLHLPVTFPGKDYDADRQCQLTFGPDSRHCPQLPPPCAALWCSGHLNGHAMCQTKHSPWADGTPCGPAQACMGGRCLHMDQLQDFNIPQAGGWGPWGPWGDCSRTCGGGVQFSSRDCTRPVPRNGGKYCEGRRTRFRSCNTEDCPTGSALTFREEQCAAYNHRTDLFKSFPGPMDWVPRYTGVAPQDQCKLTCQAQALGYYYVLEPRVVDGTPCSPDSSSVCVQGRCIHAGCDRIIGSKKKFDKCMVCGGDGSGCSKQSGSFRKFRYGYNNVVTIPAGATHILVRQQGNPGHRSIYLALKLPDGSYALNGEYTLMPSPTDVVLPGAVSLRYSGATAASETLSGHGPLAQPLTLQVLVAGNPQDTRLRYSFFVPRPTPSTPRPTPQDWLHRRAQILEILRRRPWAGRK
Procedure, shortened: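 Enzyme and test compound (DMSO dilutions) in Tris-HCl buffer incubated with aggrecan-containing polyacrylamide particles at 37 °C for 15 hr. Released GAG in supernatant quantified with 1,9-dimethylmethylene blue at 595 nm against whale chondroitin sulfate standard; % inhibition versus enzyme-free and inhibitor-free wells gives IC50 (μM).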

MMP-1 = target: T2, MMP-1 (Homo sapiens, UniProt P03956); assay: MMP-1 inhibitory action, Type I collagen Activity Measurement kit (FITC-labeled collagen type I); format: biochemical; details: 37° C. for 3 hr, read-out: Experimental Example 2 IC50 MMP1
T2 sequence (P03956 100-469): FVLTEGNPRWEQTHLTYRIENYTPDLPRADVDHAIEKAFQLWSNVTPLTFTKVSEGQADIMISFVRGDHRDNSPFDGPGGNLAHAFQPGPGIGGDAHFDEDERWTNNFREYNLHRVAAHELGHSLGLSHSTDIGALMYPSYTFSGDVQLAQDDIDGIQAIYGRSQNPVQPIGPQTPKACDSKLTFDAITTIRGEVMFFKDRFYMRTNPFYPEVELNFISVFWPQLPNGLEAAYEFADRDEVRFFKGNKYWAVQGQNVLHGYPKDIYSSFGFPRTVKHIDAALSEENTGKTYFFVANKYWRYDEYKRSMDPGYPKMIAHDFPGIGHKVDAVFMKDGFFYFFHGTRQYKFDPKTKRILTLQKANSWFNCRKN

SMILES	pIC50 (aggrecanase-1)	pIC50 (MMP-1)
O=C(O)c1ncccc1CN([C@]1(C(=O)O)C[C@H]1c1ccccc1)S(=O)(=O)c1ccc(-c2ccc(Cl)cc2)cc1 (relative stereo) [Example 1-73, 3-{[((1R*, 2S*)-1-carboxy-2-phenyl-cyclopropyl)-(4′-chloro-biphenyl-4-sulfonyl)-amino]-methyl}-pyridin-2-carboxylic acid]	> 6.00	≤ 5.00
O=C(O)[C@@]1(N(CCNc2nnn[nH]2)S(=O)(=O)c2ccc(-c3ccc(Cl)cc3)cc2)C[C@H]1c1ccccc1 (relative stereo) [Example 1-77, (1R*,2S*)-1-{(4′-chloro-biphenyl-4-sulfonyl)-[2-(1H-tetrazol-5-ylamino)-ethyl]-amino}-2-phenyl-cyclopropanecarboxylic acid]	> 6.00	≤ 5.00
O=C(O)c1nccn1CCN([C@]1(C(=O)O)C[C@H]1c1ccccc1)S(=O)(=O)c1ccc(-c2ccc(Cl)cc2)cc1 (relative stereo) [Example 1-78, 1-{2-[((1R*,2S*)-1-carboxy-2-phenyl-cyclopropyl)-(4′-chloro-biphenyl-4-sulfonyl)-amino]-ethyl}-1H-imidazole-2-carboxylic acid]	> 6.00	≤ 5.00
O=C(O)[C@@]1(N(CCNS(=O)(=O)C(F)(F)F)S(=O)(=O)c2ccc(-c3ccc(Cl)cc3)cc2)C[C@H]1c1cccc(Oc2ccccc2)c1 (relative stereo) [Example 1-81, (1R*,2S*)-1-[(4′-chloro-biphenyl-4-sulfonyl)-(2-trifluoromethanesulfonylamino-ethyl)-amino]-2-(3-phenoxy-phenyl)-cyclopropanecarboxylic acid]	> 6.00	≤ 5.00
CCN(CC)CCNc1cccc([C@@H]2C[C@@]2(C(=O)O)N(Cc2cccc(C(=O)O)c2)S(=O)(=O)c2ccc(-c3ccc(Cl)cc3)cc2)c1 (relative stereo) [Example 1-85, 3-{[{(1R*,2S*)-1-carboxy-2-[3-(2-diethylamino-ethylamino)-phenyl]-cyclopropyl}-(4′-chloro-biphenyl-4-sulfonyl)-amino]-methyl}-benzoic acid]	> 6.00	≤ 5.00
O=C(O)c1cccc(CN([C@]2(C(=O)O)C[C@H]2c2cccc(Nc3ccccn3)c2)S(=O)(=O)c2ccc(-c3ccc(Cl)cc3)cc2)c1 (relative stereo) [Example 1-86, 3-{[{(1R*,2S*)-1-carboxy-2-[3-(pyridin-2-ylamino)-phenyl]-cyclopropyl}-(4′-chloro-biphenyl-4-sulfonyl)-amino]-methyl}benzoic acid]	> 7.00	≤ 5.00
O=C(O)c1cccc(CN([C@]2(C(=O)O)C[C@H]2c2cccc(OCCO)c2)S(=O)(=O)c2ccc(-c3ccc(Cl)cc3)cc2)c1 (relative stereo) [Example 1-88, 3-{[{(1R*,2S*)-1-carboxy-2-[3-(2-hydroxy-ethoxy)-phenyl]-cyclopropyl}-(4′-chloro-biphenyl-4-sulfonyl)-amino]-methyl}-benzoic acid]	> 7.00	≤ 5.00
O=C(O)[C@@]1(N(CCNS(=O)(=O)C(F)(F)F)S(=O)(=O)c2ccc(-c3ccc(Cl)cc3)cc2)C[C@H]1c1cccc(NCCN2CCCCC2)c1 (relative stereo) [Example 1-89, (1R*,2S*)-1-[(4′-chloro-biphenyl-4-sulfonyl)-(2-trifluoromethanesulfonylamino-ethyl)-amino]-2-[3-(2-piperidin-1-yl-ethylamino)-phenyl]-cyclopropanecarboxylic acid]	> 6.00	≤ 5.00
O=C(O)[C@@]1(N(CCNS(=O)(=O)C(F)(F)F)S(=O)(=O)c2ccc(-c3ccc(Cl)cc3)cc2)C[C@H]1c1cccc(NS(=O)(=O)CCN2CCCCC2)c1 (relative stereo) [Example 1-90, (1R*,2S*)-1-[(4′-chloro-biphenyl-4-sulfonyl)-(2-trifluoromethanesulfonylamino-ethyl)-amino]-2-[3-(2-piperidin-1-yl-ethanesulfonylamino)-phenyl]-cyclopropanecarboxylic acid]	> 6.00	≤ 5.00
O=C(O)c1cccc(CN([C@]2(C(=O)O)C[C@H]2c2cccc(NCCN3CCCCC3)c2)S(=O)(=O)c2ccc(-c3ccc(Cl)cc3)cc2)c1 (relative stereo) [Example 1-91, 3-{[{(1R*,2S*)-1-carboxy-2-[3-(2-piperidin-1-yl-ethylamino)-phenyl]-cyclopropyl}-(4′-chloro-biphenyl-4-sulfonyl)-amino]-methyl}-benzoic acid]	> 6.00	≤ 5.00
O=C(O)CCCN([C@]1(C(=O)O)C[C@H]1c1ccccc1)S(=O)(=O)c1ccc(-c2ccc(Cl)cc2)cc1 (relative stereo) [Example 1-93, (1R*,2S*)-1-[(3-carboxy-propyl)-(4′-chloro-biphenyl-4-sulfonyl)-amino]-2-phenyl-cyclopropanecarboxylic acid]	> 6.00	≤ 5.00
O=C(CO)NCCN([C@]1(C(=O)O)C[C@H]1c1ccccc1)S(=O)(=O)c1ccc(-c2ccc(Cl)cc2)cc1 (relative stereo) [Example 1-96, (1R*,2S*)-1-{(4′-chloro-biphenyl-4-sulfonyl)-[2-(2-hydroxy-acetylamino)-ethyl]-amino}-2-phenyl-cyclopropanecarboxylic acid]	> 6.00	≤ 5.00
O=C(O)c1cccc(CN([C@]2(C(=O)O)C[C@H]2c2cccc(NC(=O)c3cccnc3)c2)S(=O)(=O)c2ccc(-c3ccc(Cl)cc3)cc2)c1 (relative stereo) [Example 1-99, 3-{[((1R*, 2S*)-1-carboxy-2-{3-[(pyridin-3-carbonyl)-amino]-phenyl}-cyclopropyl)-(4′-chloro-biphenyl-4-sulfonyl)-amino]-methyl}-benzoic acid]	> 7.00	≤ 5.00
O=C(O)c1cccc(CN([C@]2(C(=O)O)C[C@H]2c2cccc(OCCN3CCCC3)c2)S(=O)(=O)c2ccc(-c3ccc(Cl)cc3)cc2)c1 (relative stereo) [Example 1-100, 3-{[{(1R*,2S*)-1-carboxy-2-[3-(2-pyrrolidin-1-yl-ethoxy)-phenyl]-cyclopropyl}-(4′-chloro-biphenyl-4-sulfonyl)-amino]-methyl}-benzoic acid]	> 6.00	≤ 5.00
O=C(O)c1cccc(CN([C@]2(C(=O)O)C[C@H]2c2cccc(OCCN3CCOCC3)c2)S(=O)(=O)c2ccc(-c3ccc(Cl)cc3)cc2)c1 (relative stereo) [Example 1-101, 3-{[{(1R*,2S*)-1-carboxy-2-[3-(2-morpholin-4-yl-ethoxy)-phenyl]-cyclopropyl}-(4′-chloro-biphenyl-4-sulfonyl)-amino]-methyl}-benzoic acid]	> 6.00	≤ 5.00
CNC(=O)c1cnn(CCN([C@]2(C(=O)O)C[C@H]2c2ccccc2)S(=O)(=O)c2ccc(-c3ccc(Cl)cc3)cc2)c1 (relative stereo) [Example 1-106, (1R*,2S*)—{(4′-chloro-biphenyl-4-sulfonyl)-[2-(4-methylcarbamoyl-pyrazol-1-yl)-ethyl]-amino}-2-phenyl-cyclopropanecarboxylic acid]	> 6.00	≤ 6.00
CC(C)(O)C(=O)NCCN([C@]1(C(=O)O)C[C@H]1c1ccccc1)S(=O)(=O)c1ccc(-c2ccc(Cl)cc2)cc1 (relative stereo) [Example 1-107, (1R*,2S*)-1-{(4′-chloro-biphenyl-4-sulfonyl)-[2-(2-hydroxy-2-methyl-propionylamino)-ethyl]-amino}-2-phenyl-cyclopropanecarboxylic acid]	> 6.00	≤ 6.00
O=C(O)c1cccc(CN([C@]2(C(=O)O)C[C@H]2c2cccc(OCCn3cccn3)c2)S(=O)(=O)c2ccc(-c3ccc(Cl)cc3)cc2)c1 (relative stereo) [Example 1-108, 3-{[{(1R*,2S*)-1-carboxy-2-[3-(2-pyrazol-1-yl-ethoxy)-phenyl]-cyclopropyl}-(4′-chloro-biphenyl-4-sulfonyl)-amino]-methyl}-benzoic acid]	> 6.00	≤ 5.00
O=C(O)[C@@]1(N(CCNc2nnn[nH]2)S(=O)(=O)c2ccc(-c3ccc(Cl)cc3)cc2)C[C@H]1c1cccc(Oc2ccccc2)c1 (relative stereo) [Example 1-109, (1R*,2S*)-1-{(4′-chloro-biphenyl-4-sulfonyl)-[2-(1H-tetrazol-5-ylamino)-ethyl]-amino}-2-(3-phenoxy-phenyl)-cyclopropanecarboxylic acid]	> 7.00	≤ 5.00
